This note sets out measurements from patent publication US4514573A, “Isoprenylamine derivatives” (priority 1981, dated 1985).

Molecules are shown by their SMILES.

In one series the test system is tumor cells KN7 -8. Briefly: Anti-tumor activity in mice inoculated with tumor cells. Format: in vivo, Balb/c male mice. The settings on record: 30 mg/kg intraperitoneally, 24 hours before inoculation and on second and fifth day after; 6 mice per group. An excerpt:
Groups, each consisting of 6 Balb/c male mice weighing about 20 g, were intraperitoneally administered 5×10^5 of tumor cells KN7 -8.

The test system of another series is vaccinia virus. The series is classed as cell-based. The following applies: 50 n molar concentration, Vero cells, in vitro.
Series [1] in a line: Toxicity (50% lethal dose, intravenous). The following applies: mouse, in vivo, ddY male mice 20-25 g, read-out: LD50 (Intravenously administered mg/kg). An excerpt: Using ddY male mice weighing 20-25 g, 50% lethal dose of each test compound when intravenously administered was obtained, the results of which are shown in Table 5.

Consider `CC(C)=CCCC(C)=CCCC(C)=CCCC(C)=CCCC(C)=CCCC(C)=CCCC(C)=CCCC(C)=CCCC(C)=CCCC(C)=CCNCc1cccc(CN)c1` [drawing 58], for which, in the series with tumor cells KN7 -8, the “Anti-tumor activity (Survivor on the 30th day)” value was 1/6.
Turning to `CC(C)=CCCC(C)=CCCC(C)=CCCC(C)=CCCC(C)=CCCC(C)=CCCC(C)=CCCC(C)=CCCC(C)=CCNCc1ccc(C)cc1C`, the “Anti-vaccinia virus activity Plaque inhibition rate %” value in the series on vaccinia virus stood at 9.8%.
With `CC(C)=CCCC(C)=CCCC(C)=CCCC(C)=CCCC(C)=CCCC(C)=CCCC(C)=CCCC(C)=CCCC(C)=CCCC(C)=CCNc1ccc(C(=O)O)cc1` [drawing 59], the LD50 in series [1] was 27.7 mg/kg.
Turning to `COc1ccc(CNCC=C(C)CCCC(C)CCCC(C)CCCC(C)C)cc1OC` (stereo not drawn) [drawing 90], the “Anti-vaccinia virus activity Plaque inhibition rate %” value in the series with vaccinia virus is on record as 22.0%.
As for `CC(C)=CCCC(C)=CCCC(C)=CCCC(C)=CCCC(C)=CCCC(C)=CCCC(C)=CCCC(C)=CCCC(C)=CCCC(C)=CCNC(c1ccccc1)c1ccccc1` [drawing 66], the LD50 in series [1] amounted to 1180 mg/kg.
Consider `COc1ccc(CNCC=C(C)CCC=C(C)CCC=C(C)CCC=C(C)CCC=C(C)CCC=C(C)CCC=C(C)CCC=C(C)CCC=C(C)C)cc1OC` [drawing 69], for which, in series [1], the LD50 turned out to be 26 mg/kg.
